Patent US20140155580A1, “TRANSGENIC AVES PRODUCING HUMAN POLYCLONAL ANTIBODIES” (Synageva BioPharma Corp., priority 2003, published 2014)

System: chicken embryonic stem cells
Assay: Titration kill curve: cES cells in culture exposed to puromycin or neomycin
Type: cell-based
Parameters: key to Morphology of cES cells: ES: ES cells are present.; diff: ES cells are differentiated.; gone: no morphologically recognizable cells are present
Method: In a preferred embodiment, the concentration of puromycin required for selecting transfected cells is calculated as a titration kill curve. Titration kill curves for chicken embryonic stem cells are established by exposing cells in culture to puromycin concentrations varying from 0.0 to 1.0 μg/ml for 10 days (Table 7) and neomycin concentrations varying from 0.0 to 200 μg/ml (Table 8). The medium is changed every 2 days and fresh puromycin or neomycin is added. […] Puromycin concentrations of 0.3-1.0 μg/ml are used for selection of the transfected cultures. Neomycin concentrations over 40 μg/ml eliminated all cES cells within 7 days (Table 8).

neomycin
Morphology of cES cells (neomycin 10 μg/ml, day 1 under selection): ES
Morphology of cES cells (neomycin 10 μg/ml, day 2 under selection): ES
Morphology of cES cells (neomycin 10 μg/ml, day 3 under selection): ES
Morphology of cES cells (neomycin 10 μg/ml, day 4 under selection): ES
Morphology of cES cells (neomycin 10 μg/ml, day 5 under selection): ES
Morphology of cES cells (neomycin 10 μg/ml, day 6 under selection): ES
Morphology of cES cells (neomycin 10 μg/ml, day 7 under selection): ES
Morphology of cES cells (neomycin 10 μg/ml, day 8 under selection): ES
Morphology of cES cells (neomycin 10 μg/ml, day 9 under selection): ES
Morphology of cES cells (neomycin 10 μg/ml, day 10 under selection): ES
Morphology of cES cells (neomycin 20 μg/ml, day 1 under selection): ES
Morphology of cES cells (neomycin 20 μg/ml, day 2 under selection): ES
Morphology of cES cells (neomycin 20 μg/ml, day 3 under selection): ES
Morphology of cES cells (neomycin 20 μg/ml, day 4 under selection): ES
Morphology of cES cells (neomycin 20 μg/ml, day 5 under selection): ES
Morphology of cES cells (neomycin 20 μg/ml, day 6 under selection): ES
Morphology of cES cells (neomycin 20 μg/ml, day 7 under selection): ES
Morphology of cES cells (neomycin 20 μg/ml, day 8 under selection): ES
Morphology of cES cells (neomycin 20 μg/ml, day 9 under selection): ES
Morphology of cES cells (neomycin 20 μg/ml, day 10 under selection): ES
Morphology of cES cells (neomycin 30 μg/ml, day 1 under selection): ES
Morphology of cES cells (neomycin 30 μg/ml, day 2 under selection): ES
Morphology of cES cells (neomycin 30 μg/ml, day 3 under selection): ES
Morphology of cES cells (neomycin 30 μg/ml, day 4 under selection): ES
Morphology of cES cells (neomycin 30 μg/ml, day 5 under selection): ES
Morphology of cES cells (neomycin 30 μg/ml, day 6 under selection): ES
Morphology of cES cells (neomycin 30 μg/ml, day 9 under selection): Diff
Morphology of cES cells (neomycin 40 μg/ml, day 1 under selection): ES
Morphology of cES cells (neomycin 40 μg/ml, day 2 under selection): ES
Morphology of cES cells (neomycin 40 μg/ml, day 3 under selection): ES
Morphology of cES cells (neomycin 40 μg/ml, day 4 under selection): ES
Morphology of cES cells (neomycin 40 μg/ml, day 7 under selection): dead
Morphology of cES cells (neomycin 40 μg/ml, day 8 under selection): gone
Morphology of cES cells (neomycin 40 μg/ml, day 9 under selection): gone
Morphology of cES cells (neomycin 40 μg/ml, day 10 under selection): gone
Morphology of cES cells (neomycin 50 μg/ml, day 1 under selection): ES
Morphology of cES cells (neomycin 50 μg/ml, day 2 under selection): ES
Morphology of cES cells (neomycin 50 μg/ml, day 3 under selection): ES
Morphology of cES cells (neomycin 50 μg/ml, day 8 under selection): gone
Morphology of cES cells (neomycin 50 μg/ml, day 9 under selection): gone
Morphology of cES cells (neomycin 50 μg/ml, day 10 under selection): gone
Morphology of cES cells (neomycin 60 μg/ml, day 1 under selection): ES
Morphology of cES cells (neomycin 60 μg/ml, day 2 under selection): ES
Morphology of cES cells (neomycin 60 μg/ml, day 3 under selection): ES
Morphology of cES cells (neomycin 60 μg/ml, day 4 under selection): gone
Morphology of cES cells (neomycin 60 μg/ml, day 5 under selection): gone
Morphology of cES cells (neomycin 60 μg/ml, day 6 under selection): gone
Morphology of cES cells (neomycin 60 μg/ml, day 7 under selection): gone
Morphology of cES cells (neomycin 60 μg/ml, day 8 under selection): gone
Morphology of cES cells (neomycin 60 μg/ml, day 9 under selection): gone
Morphology of cES cells (neomycin 60 μg/ml, day 10 under selection): gone
Morphology of cES cells (neomycin 100 μg/ml, day 2 under selection): Diff
Morphology of cES cells (neomycin 100 μg/ml, day 3 under selection): dead
Morphology of cES cells (neomycin 100 μg/ml, day 4 under selection): gone
Morphology of cES cells (neomycin 100 μg/ml, day 5 under selection): gone
Morphology of cES cells (neomycin 100 μg/ml, day 6 under selection): gone
Morphology of cES cells (neomycin 100 μg/ml, day 7 under selection): gone
Morphology of cES cells (neomycin 100 μg/ml, day 8 under selection): gone
Morphology of cES cells (neomycin 100 μg/ml, day 9 under selection): gone
Morphology of cES cells (neomycin 100 μg/ml, day 10 under selection): gone
Morphology of cES cells (neomycin 150 μg/ml, day 1 under selection): dead
Morphology of cES cells (neomycin 150 μg/ml, day 2 under selection): dead
Morphology of cES cells (neomycin 150 μg/ml, day 3 under selection): gone
Morphology of cES cells (neomycin 150 μg/ml, day 4 under selection): gone
Morphology of cES cells (neomycin 150 μg/ml, day 5 under selection): gone
Morphology of cES cells (neomycin 150 μg/ml, day 6 under selection): gone
Morphology of cES cells (neomycin 150 μg/ml, day 7 under selection): gone
Morphology of cES cells (neomycin 150 μg/ml, day 8 under selection): gone
Morphology of cES cells (neomycin 150 μg/ml, day 9 under selection): gone
Morphology of cES cells (neomycin 150 μg/ml, day 10 under selection): gone
Morphology of cES cells (neomycin 200 μg/ml, day 1 under selection): dead
Morphology of cES cells (neomycin 200 μg/ml, day 2 under selection): gone
Morphology of cES cells (neomycin 200 μg/ml, day 3 under selection): gone
Morphology of cES cells (neomycin 200 μg/ml, day 4 under selection): gone
Morphology of cES cells (neomycin 200 μg/ml, day 5 under selection): gone
Morphology of cES cells (neomycin 200 μg/ml, day 6 under selection): gone
Morphology of cES cells (neomycin 200 μg/ml, day 7 under selection): gone
Morphology of cES cells (neomycin 200 μg/ml, day 8 under selection): gone
Morphology of cES cells (neomycin 200 μg/ml, day 9 under selection): gone
Morphology of cES cells (neomycin 200 μg/ml, day 10 under selection): gone
Time in which all cES cells were eliminated (neomycin concentrations over 40 μg/ml): ≤ 7 days
